According to ChEMBL document CHEMBL1131503, “Design and synthesis of enantiomers of 3,5-dinitro-o-tyrosine: alpha-amino-3-hydroxy-5-methyl-4-isoxazolepropanoic acid (AMPA) receptor antagonists” (J Med Chem, 1998):

Molecular target: Glutamate receptor ionotropic, AMPA (Rattus norvegicus) (UniProt P19491+P19492+P19493+P19490)
Experiment: The compound was tested for the % displacement of [3H]AMPA binding to Ionotropic glutamate receptor AMPA in rat brain membranes at a concentration of 100 uM
Format: cell membranes

Compound	Displacement
O=[N+]([O-])c1cc2nc(O)c(O)nc2cc1[N+](=O)[O-]	99%
NC(Cc1ccccc1OCC(=O)O)C(=O)O (centres undefined)	20%
CC(=O)NC(Cc1cc([N+](=O)[O-])cc([N+](=O)[O-])c1O)C(=O)O (centres undefined)	14%
COc1c(CC(NC(=O)OC(C)(C)C)C(=O)O)cc([N+](=O)[O-])cc1[N+](=O)[O-] (centres undefined)	26%
N[C@H](Cc1cc([N+](=O)[O-])cc([N+](=O)[O-])c1O)C(=O)O	58%
CC(C)(C)OC(=O)NC(Cc1cc([N+](=O)[O-])cc([N+](=O)[O-])c1O)C(=O)O (centres undefined)	17%
COc1c(CC(N)C(=O)O)cc([N+](=O)[O-])cc1[N+](=O)[O-] (centres undefined)	66%
NC(Cc1cc([N+](=O)[O-])cc([N+](=O)[O-])c1O)C(=O)O (centres undefined)	76%
N[C@@H](Cc1cc([N+](=O)[O-])cc([N+](=O)[O-])c1O)C(=O)O	78%
